Test results from the Bradley open melting point set (2014).
Values joined by “and” are separate entries in the source; they are usually repeats but may differ in a detail not shown here. Identical values can stand only once. Counter-ions that a name gives are not always drawn.

melting point	Compound
130 °C	CCc1ccc(NC(=S)NN)cc1 [4-(4-ethylphenyl)-3-thiosemicarbazide]
-81 °C	CCOC=O [ethyl formate]
83 °C	CCCCCc1ccc(B(O)O)cc1 [4-n-pentylbenzeneboronic acid]
44 °C	CCCCCCCCCCCC(=O)O [dodecanoic acid]
170 °C	O=C(O)c1cc(O)ccc1[N+](=O)[O-] [5-hydroxy-2-nitrobenzoic acid]
157 °C	O=C(O)Cc1ccccc1Nc1c(Cl)cccc1Cl [Diclofenac]
206 °C	Cc1ccc(B(O)O)c(C)c1 [2,4-dimethylbenzeneboronic acid]
-75 °C	CCCOCCO [2-Propoxyethanol]
161 °C	NC(=O)c1ccccc1Br [2-bromobenzamide]
116 °C	Nc1ccc2ccc3cccc4ccc1c2c34 [aminopyrene]
122 °C	O=C(O)c1ccccc1 [Benzoic Acid]
55 °C	CC(C)(C)c1ccc(O)c(C(C)(C)C)c1 [2,4-di-tert-butylphenol]
-16 °C	OCCCCCO [1,5-pentanediol]
154 °C	Cc1c(C(=O)OCC(N)=O)cnn1-c1ccccc1 [OSM-S-57]
120 °C	O=C1CCC(=O)O1 [succinic anhydride]
-102 °C	C=CCCCCCC [1-octene]
159 °C	O=C(O)c1cc(I)ccc1Cl [2-chloro-5-iodobenzoic acid]
139 °C	COc1cc(C(=O)NS(=O)(=O)c2ccccc2C)ccc1Cc1cn(C)c2ccc(NC(=O)OC3CCCC3)cc12 [Zafirlukast]
110 °C	CC(=O)OC1CCC2(C)C3CCC4=C(CCC4(C)C#CCl)C3CCC2(C)C1 (stereo not drawn) [17-(chloroethynyl)-5,10,17-trimethylgon-13-en-3-yl acetate]
167 °C	O=Cc1ccc(O)c(O)c1O [2,3,4-trihydroxybenzaldehyde]
-7 °C	O=Cc1ccccc1O [salicylaldehyde]

melting point	Compound
149 °C	Nc1cc(-c2ccccc2)c(O)c(-c2ccccc2)c1 [5'-Amino-1,1':3',1''-terphenyl-2'-ol]
29 °C	CC1CCC(C(C)C)C(O)C1 (racemic) [dl-menthol]
35 °C	Cc1ccccc1CO [2-methylbenzyl alcohol]
17 °C	CC(=O)O [acetic acid]
29.5 °C	CC(=O)c1ccco1 [1-(2-Furyl)ethanone]
6 °C	CCCCCCCCCCCCCC [N-tetradecane]
-78 °C	CC(=O)OCCC(C)C [isopentyl acetate]
193 °C	COc1cc(B(O)O)ccc1C [3-methoxy-4-methylbenzeneboronic acid]
114 °C	CCCCCCCCCCCCCCCC(=O)OC[C@H](O)[C@H]1OC(=O)C(O)=C1O [L-ascorbic acid 6-palmitate]
94 °C	O=C(CCl)Oc1ccc([N+](=O)[O-])cc1 [4-nitrophenyl chloroacetate]
49 °C	N#CCOc1ccccc1Br [2-bromophenoxyacetonitrile]
-34 °C	CCCCC(=O)O [valeric acid]
157 °C	COc1cccc(-c2nnn[nH]2)c1 [5-(3-methoxyphenyl)-1h-tetrazole]
264 °C	c1ccc([C@H]2CN3CCSC3=N2)cc1 [Levamisole]
95 °C	COC(=O)c1ccc(C(C)=O)cc1 [methyl_4-acetylbenzoate]
176 °C	O=C(/C=C/c1ccccc1)c1ccc(O)cc1 [4'-hydroxychalcone]
84 °C	Cc1cc2nsnc2cc1C [5,6-dimethyl-2,1,3-benzothiadiazole]
299 °C	O=C(O)c1ccc(Br)c(C(=O)O)c1 [4-bromoisophthalic acid]
252 °C	O=C(O)c1ccc(Br)cc1 [p-bromobenzoic acid]
181 °C	Clc1nc[nH]c1Cl [4,5-dichloroimidazole]
129 °C (2×) and 128 °C	COc1cc(/C=C/C(=O)c2ccccc2O)ccc1O

melting point	Compound
144 °C	O=C(O)c1ccc(N2C(=O)C3ON=C(C(=O)c4ccc(Cl)cc4)C3C2=O)cc1 (stereo not drawn)
144 °C	C#CC1(O)CC[C@H]2[C@@H]3CCc4cc(O)ccc4[C@H]3CC[C@@]21C (stereo in doubt) [(17beta)-17-Ethynylestra-1(10),2,4-triene-3,17-diol]
83 °C and 80.2 °C	c1ccc2ccccc2c1 [naphthalene]
48 °C	COC(=O)c1ccc(OC)cc1O [methyl 2-hydroxy-4-methoxybenzoate]
208 °C	CC(=O)Nc1ccccc1O [2-acetamidophenol]
134 °C	O=[N+]([O-])c1cc(C=Nc2ccccc2)ccc1C=Nc1ccccc1 [N,N'-[(2-nitrobenzene-1,4-diyl)di(E)methylylidene]dianiline]
-34 °C	COB(OC)OC [Trimethyl borate]
-12 °C	CCCCOC(=O)c1ccccc1 [butyl_benzoate]
64.5 °C	CCCCOc1cc(C(=O)NCCN(CC)CC)c2ccccc2n1 [dibucaine]
52 °C	c1ccc(CCc2ccccc2)cc1 [bibenzyl]
-78 °C	C#CC(C)(C)C [3,3-dimethyl-1-butyne]
100 °C	CCOc1ccccc1B(O)O [2-ethoxybenzeneboronic acid]
106 °C	Cc1cc(CC(=O)O)ccc1F [4-fluoro-3-methylphenylacetic acid]
184 °C	CN1CCN(C2=Nc3cc(Cl)ccc3Nc3ccccc32)CC1 [clozapine]
30 °C	COc1ccccc1O [2-methoxyphenol]
189 °C	Nc1ccc(O)cc1 [4-Aminophenol]
115 °C	O=[N+]([O-])c1ccc(O)cc1 [p-nitrophenol]
128 °C	Nc1ccc(I)cn1 [2-amino-5-iodopyridine]
86 °C	CCCCc1ccc(/N=N/c2ccc(OC(=O)CC)cc2)cc1 [4-[(E)-(4-butylphenyl)diazenyl]phenyl propanoate]
37 °C	CCCCCCCCCCNCCCCCCCCCC [di-n-decylamine]
179 °C	CC1(C)C2CC[C@]1(C)C(=O)C2 [(1S)-1,7,7-Trimethylbicyclo[2.2.1]heptan-2-one]

melting point	Compound
346 °C	O=C(O)c1cc(=O)[nH]c(=O)[nH]1 [orotic acid, anhydrous]
233 °C	N[C@@H](Cc1ccc(F)c(F)c1)C(=O)O (racemic) [3,4-difluoro-dl-phenylalanine]
99 °C	c1ccc2c(c1)ccc1ccccc12 [phenanthracene]
150 °C and 146 °C (3×) and 147 °C	OC[C@H]1O[C@H](O)[C@H](O)[C@@H](O)[C@@H]1O [glucose]
111 °C	CC(=O)C1C(=O)C=C(C)OC1=O (stereo not drawn) [dehydroacetic acid]
-121 °C	CCCCC(C)CC (stereo not drawn) [3-methylheptane]
113 °C	COC(=O)c1ccc(/C=C\c2ccc(C(=O)OC)cc2)cc1 [dimethyl cis-stilbene-4,4'-dicarboxylate]
-90 °C	FC(F)(F)C(F)(F)C(F)(F)C(F)(F)C(F)(F)C(F)(F)F [perfluorohexanes]
114 °C	CC(=O)Nc1ccccc1 [acetanilide]
53 °C	CCOC(=O)C(NC=O)C(=O)OCC [diethyl formamidomalonate]
78 °C	O=C1CCC(=O)CC1 [1,4-cyclohexanedione]
102 °C	CCCNC(N)=O [N-propylurea]
162 °C	CC12CCC(C1(C)C)C(CCCc1ccccc1)(C1(CCCc3ccccc3)C(=O)C3(C)CCC1C3(C)C)C2=O (stereo not drawn)
165 °C	Cc1c(C)c(C)c(C)c(C)c1C [hexamethylbenzene]
-49 °C	CCCCN [Butylamine]
-7 °C	CCCCCCCCCCCCS [1-dodecanethiol]
47 °C	O=CNc1ccccc1 [formanilide]
103 °C	CC(=O)N(Nc1ccccc1/N=N/c1ccccc1)c1ccccc1 [N-phenyl-N'-{2-[(E)-phenyldiazenyl]phenyl}acetohydrazide]
86 °C	CC(C)c1ccccc1B(O)O [2-isopropylbenzeneboronic acid]

Compound	melting point
O=S(=O)(Cl)c1cccs1 [thiophene-2-sulfonyl chloride]	30 °C
S=C=S [carbon disulfide]	-112 °C
C=CCCl [allyl chloride]	-135 °C
c1cc2c3c(cccc3c1)CC2 [Acenaphthene]	95 °C
ClC1/C=C\C2C3(Cl)C(\Cl)=C(\Cl)C(Cl)(C12)C3(Cl)Cl (stereo not drawn) [heptachlor]	95 °C and 95.5 °C
c1ccc2c(c1)cc1ccc3cccc4ccc2c1c34 [benzo(a)pyrene]	179 °C
CC12CCC3C(CCC4CC(=O)CCC43C)C1CCC2=O (stereo not drawn) [androstane-3,17-dione]	132 °C
O=C(O)CCCCCCCBr [8-bromooctanoic acid]	39 °C
c1ccc(P(C2CCCCC2)C2CCCCC2)cc1 [dicyclohexylphenylphosphine]	60 °C
CC12CCC3C(CCC4CC(OCc5ccccc5)CCC43C)C1CCC2=O (stereo not drawn) [3-(benzyloxy)androstan-17-one]	220 °C
C1CCC(NC2CCCCC2)CC1 [dicyclohexylamine]	-2 °C
BrC(Br)Br [Bromoform]	9 °C
NNC(=O)NN [carbohydrazide]	156 °C
Cc1cc(C)c(C)c(CCl)c1C [3-(chloromethyl)-1,2,4,5-tetramethylbenzene]	70.5 °C
[O-][n+]1onc2ccccc21 [benzofuroxan]	69 °C
Clc1ccc(-c2ccccc2)cc1 [4-chlorobiphenyl]	78 °C
O=[N+]([O-])c1ccc(O)c([N+](=O)[O-])c1 [2,4-Dinitrophenol]	108 °C
CC(=O)Oc1ccc(C(C)=O)cc1 [p-acetoxy_acetophenone]	54 °C
O=[N+]([O-])c1cccc2ccccc12 [1-Nitronaphthalene]	61.5 °C
Clc1ccc(C(Cl)(Cl)Cl)cc1 [4-chlorobenzotrichloride]	6 °C
Cc1nnc2n1-c1ccc(Cl)cc1C(c1ccccc1Cl)=NC2 [triazolam]	234 °C
